Measured values: ChEMBL document CHEMBL3396964, “SAH derived potent and selective EZH2 inhibitors” (Bioorg Med Chem Lett, 2015)
Activity calls are given as the source filed them. No cut-off for these calls is given here.

Tests used:
[1] = biological target: T1, Histone-lysine N-methyltransferase SUV39H2 (Homo sapiens, UniProt Q9H5I1); experiment: Inhibition of SUV39H2 (unknown origin) by HMT assay
[2] = biological target: T2, Histone-lysine N-methyltransferase SETD7 (Homo sapiens) (UniProt Q8WTS6); details: 10 uM
T2 sequence (whole entry): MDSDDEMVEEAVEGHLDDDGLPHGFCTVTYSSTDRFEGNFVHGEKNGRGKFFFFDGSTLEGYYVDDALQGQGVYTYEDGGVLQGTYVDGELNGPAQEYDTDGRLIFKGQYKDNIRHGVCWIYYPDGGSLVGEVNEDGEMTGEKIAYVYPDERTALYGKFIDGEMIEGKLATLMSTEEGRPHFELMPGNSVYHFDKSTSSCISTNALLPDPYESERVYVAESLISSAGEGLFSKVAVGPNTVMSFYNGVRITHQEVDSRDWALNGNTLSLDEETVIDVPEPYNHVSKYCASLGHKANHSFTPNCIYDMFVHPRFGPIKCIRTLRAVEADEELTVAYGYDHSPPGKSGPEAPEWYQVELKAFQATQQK
Description: Inhibition of SETD7 (unknown origin) at 10 uM by HMT assay

[3] = biological target: T3, Histone-lysine N-methyltransferase SETD7 (Homo sapiens, UniProt Q8WTS6); experiment: Inhibition of SETD7 (unknown origin) by HMT assay
T3 sequence (Q8WTS6 whole entry): T2 sequence (whole entry)

[4] = biological target: T4, Histone-lysine N-methyltransferase EHMT2 (Homo sapiens) (UniProt Q96KQ7); experiment: Inhibition of G9a (unknown origin) at 10 uM by HMT assay
T4 sequence (whole entry): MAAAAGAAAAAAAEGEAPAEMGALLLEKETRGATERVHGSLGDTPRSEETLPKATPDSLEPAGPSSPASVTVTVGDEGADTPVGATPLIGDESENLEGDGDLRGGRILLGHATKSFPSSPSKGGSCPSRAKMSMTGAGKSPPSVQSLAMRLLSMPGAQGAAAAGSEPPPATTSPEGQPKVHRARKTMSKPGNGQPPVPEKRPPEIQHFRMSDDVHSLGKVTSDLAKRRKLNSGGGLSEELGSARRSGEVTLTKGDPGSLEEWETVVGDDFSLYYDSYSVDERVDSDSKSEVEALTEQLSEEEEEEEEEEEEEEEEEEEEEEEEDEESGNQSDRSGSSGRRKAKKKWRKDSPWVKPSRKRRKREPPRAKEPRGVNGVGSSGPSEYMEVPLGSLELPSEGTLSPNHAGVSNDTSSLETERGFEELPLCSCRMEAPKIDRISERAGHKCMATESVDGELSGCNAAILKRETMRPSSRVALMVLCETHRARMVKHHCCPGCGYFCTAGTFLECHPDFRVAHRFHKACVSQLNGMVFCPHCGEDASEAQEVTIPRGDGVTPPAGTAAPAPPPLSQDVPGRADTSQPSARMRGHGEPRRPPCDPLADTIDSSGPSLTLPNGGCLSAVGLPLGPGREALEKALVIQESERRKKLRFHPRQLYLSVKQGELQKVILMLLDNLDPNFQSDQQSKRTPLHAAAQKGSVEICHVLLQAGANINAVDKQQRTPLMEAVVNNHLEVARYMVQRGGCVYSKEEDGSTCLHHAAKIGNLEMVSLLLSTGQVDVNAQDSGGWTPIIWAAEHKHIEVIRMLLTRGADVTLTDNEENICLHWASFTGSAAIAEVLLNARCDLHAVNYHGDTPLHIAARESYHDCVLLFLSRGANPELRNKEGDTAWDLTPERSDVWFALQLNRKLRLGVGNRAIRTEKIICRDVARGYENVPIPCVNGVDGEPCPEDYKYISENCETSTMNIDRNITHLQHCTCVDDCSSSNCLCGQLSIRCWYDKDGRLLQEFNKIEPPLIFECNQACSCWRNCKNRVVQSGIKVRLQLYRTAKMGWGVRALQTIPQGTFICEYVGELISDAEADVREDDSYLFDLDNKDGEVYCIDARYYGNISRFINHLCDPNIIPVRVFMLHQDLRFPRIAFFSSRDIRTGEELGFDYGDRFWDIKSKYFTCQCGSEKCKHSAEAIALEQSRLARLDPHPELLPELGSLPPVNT

[5] = biological target: Histone-lysine N-methyltransferase EZH2 (Homo sapiens) (UniProt Q15910); experiment: Inhibition of EZH2 (unknown origin) at 100 uM by cell-based assay
[6] = biological target: T5, Histone-lysine N-methyltransferase EHMT2 (Homo sapiens, UniProt Q96KQ7); experiment: Inhibition of G9a (unknown origin) by HMT assay
T5 sequence (Q96KQ7 whole entry): T4 sequence (whole entry)

[7] = biological target: Histone-lysine N-methyltransferase 2A (Homo sapiens, UniProt Q03164); experiment: Inhibition of MLL (unknown origin) by HMT assay
[8] = biological target: T1, Histone-lysine N-methyltransferase SUV39H2; experiment: Inhibition of SUV39H2 (unknown origin) at 10 uM by HMT assay

T1 sequence (Q9H5I1 whole entry): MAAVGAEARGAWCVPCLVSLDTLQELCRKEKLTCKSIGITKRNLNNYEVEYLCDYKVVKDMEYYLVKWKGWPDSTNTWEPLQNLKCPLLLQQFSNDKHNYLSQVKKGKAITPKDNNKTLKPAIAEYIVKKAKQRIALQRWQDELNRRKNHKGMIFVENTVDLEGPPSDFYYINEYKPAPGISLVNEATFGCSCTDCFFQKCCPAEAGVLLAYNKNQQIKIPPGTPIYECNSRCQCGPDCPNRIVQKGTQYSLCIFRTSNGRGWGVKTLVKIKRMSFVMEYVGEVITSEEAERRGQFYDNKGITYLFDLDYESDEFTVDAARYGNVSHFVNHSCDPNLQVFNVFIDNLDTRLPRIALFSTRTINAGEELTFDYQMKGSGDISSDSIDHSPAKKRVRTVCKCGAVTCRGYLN
Histone-lysine N-methyltransferase 2A, sequence (Q03164 1-2718 limits assumed): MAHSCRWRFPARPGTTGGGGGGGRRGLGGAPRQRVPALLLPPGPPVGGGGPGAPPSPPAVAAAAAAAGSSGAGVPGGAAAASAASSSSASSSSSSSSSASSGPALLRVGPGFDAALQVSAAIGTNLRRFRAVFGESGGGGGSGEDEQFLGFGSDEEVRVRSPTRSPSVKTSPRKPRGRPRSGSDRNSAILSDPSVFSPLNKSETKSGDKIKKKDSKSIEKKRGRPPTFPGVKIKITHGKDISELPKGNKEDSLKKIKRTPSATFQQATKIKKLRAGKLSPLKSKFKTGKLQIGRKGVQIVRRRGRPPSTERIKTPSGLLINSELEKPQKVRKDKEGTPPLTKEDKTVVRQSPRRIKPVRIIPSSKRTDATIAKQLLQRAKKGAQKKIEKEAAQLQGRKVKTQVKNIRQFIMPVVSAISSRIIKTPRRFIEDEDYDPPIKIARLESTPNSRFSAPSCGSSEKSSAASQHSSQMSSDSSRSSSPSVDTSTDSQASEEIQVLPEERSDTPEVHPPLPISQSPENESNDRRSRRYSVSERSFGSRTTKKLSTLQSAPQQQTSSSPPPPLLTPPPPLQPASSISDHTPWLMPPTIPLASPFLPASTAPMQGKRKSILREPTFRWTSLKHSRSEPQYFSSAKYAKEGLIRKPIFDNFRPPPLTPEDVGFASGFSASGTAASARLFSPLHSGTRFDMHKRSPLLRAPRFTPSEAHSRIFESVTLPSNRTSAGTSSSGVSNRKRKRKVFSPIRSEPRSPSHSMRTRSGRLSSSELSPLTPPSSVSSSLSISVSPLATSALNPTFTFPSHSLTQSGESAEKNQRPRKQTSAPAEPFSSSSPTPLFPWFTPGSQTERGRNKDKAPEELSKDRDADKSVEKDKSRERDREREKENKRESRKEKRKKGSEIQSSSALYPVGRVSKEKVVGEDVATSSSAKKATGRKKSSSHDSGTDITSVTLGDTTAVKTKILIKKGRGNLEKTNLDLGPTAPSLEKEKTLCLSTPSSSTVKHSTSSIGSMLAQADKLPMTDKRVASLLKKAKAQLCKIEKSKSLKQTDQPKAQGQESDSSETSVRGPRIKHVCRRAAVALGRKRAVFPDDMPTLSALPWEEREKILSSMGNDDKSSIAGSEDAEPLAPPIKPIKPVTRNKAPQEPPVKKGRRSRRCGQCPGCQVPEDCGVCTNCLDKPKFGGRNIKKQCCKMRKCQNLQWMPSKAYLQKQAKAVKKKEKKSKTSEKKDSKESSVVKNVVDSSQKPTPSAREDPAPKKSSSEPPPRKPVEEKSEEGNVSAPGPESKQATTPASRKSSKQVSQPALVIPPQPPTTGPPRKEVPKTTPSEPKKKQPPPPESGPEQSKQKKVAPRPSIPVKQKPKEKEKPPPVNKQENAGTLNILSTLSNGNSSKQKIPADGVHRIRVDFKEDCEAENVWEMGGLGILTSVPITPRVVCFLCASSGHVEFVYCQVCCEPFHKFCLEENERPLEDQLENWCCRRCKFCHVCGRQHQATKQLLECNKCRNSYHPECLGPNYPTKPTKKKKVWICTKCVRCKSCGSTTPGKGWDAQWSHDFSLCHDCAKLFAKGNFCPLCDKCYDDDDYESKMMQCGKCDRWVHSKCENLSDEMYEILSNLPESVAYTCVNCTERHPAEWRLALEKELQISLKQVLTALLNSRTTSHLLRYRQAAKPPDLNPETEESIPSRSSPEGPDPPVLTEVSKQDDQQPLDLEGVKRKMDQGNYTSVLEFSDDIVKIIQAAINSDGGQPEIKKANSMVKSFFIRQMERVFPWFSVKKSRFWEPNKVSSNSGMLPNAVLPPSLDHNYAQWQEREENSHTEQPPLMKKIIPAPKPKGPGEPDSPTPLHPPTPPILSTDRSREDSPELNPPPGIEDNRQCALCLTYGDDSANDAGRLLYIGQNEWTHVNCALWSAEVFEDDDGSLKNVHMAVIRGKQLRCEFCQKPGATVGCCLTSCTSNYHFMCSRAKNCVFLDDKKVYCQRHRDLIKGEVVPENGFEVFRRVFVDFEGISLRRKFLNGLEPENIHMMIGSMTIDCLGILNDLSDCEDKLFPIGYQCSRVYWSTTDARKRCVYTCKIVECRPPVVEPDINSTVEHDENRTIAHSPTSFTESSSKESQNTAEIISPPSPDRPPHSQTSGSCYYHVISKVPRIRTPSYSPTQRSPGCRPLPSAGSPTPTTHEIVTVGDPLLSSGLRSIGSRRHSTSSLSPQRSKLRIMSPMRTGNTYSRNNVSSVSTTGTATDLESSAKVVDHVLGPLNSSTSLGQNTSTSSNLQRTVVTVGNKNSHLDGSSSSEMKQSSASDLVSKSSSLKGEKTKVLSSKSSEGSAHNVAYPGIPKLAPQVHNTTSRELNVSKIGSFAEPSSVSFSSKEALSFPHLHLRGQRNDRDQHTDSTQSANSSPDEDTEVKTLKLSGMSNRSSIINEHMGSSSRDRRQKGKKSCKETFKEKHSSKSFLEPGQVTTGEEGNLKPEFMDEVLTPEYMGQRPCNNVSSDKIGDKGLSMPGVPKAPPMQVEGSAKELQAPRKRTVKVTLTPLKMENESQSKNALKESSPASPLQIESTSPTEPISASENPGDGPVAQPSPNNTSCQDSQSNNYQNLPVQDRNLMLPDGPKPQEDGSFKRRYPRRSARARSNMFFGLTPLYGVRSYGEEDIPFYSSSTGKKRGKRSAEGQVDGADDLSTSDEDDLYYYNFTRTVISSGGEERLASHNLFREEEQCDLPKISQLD
Histone-lysine N-methyltransferase 2A, sequence (Q03164 2719-3969 limits assumed): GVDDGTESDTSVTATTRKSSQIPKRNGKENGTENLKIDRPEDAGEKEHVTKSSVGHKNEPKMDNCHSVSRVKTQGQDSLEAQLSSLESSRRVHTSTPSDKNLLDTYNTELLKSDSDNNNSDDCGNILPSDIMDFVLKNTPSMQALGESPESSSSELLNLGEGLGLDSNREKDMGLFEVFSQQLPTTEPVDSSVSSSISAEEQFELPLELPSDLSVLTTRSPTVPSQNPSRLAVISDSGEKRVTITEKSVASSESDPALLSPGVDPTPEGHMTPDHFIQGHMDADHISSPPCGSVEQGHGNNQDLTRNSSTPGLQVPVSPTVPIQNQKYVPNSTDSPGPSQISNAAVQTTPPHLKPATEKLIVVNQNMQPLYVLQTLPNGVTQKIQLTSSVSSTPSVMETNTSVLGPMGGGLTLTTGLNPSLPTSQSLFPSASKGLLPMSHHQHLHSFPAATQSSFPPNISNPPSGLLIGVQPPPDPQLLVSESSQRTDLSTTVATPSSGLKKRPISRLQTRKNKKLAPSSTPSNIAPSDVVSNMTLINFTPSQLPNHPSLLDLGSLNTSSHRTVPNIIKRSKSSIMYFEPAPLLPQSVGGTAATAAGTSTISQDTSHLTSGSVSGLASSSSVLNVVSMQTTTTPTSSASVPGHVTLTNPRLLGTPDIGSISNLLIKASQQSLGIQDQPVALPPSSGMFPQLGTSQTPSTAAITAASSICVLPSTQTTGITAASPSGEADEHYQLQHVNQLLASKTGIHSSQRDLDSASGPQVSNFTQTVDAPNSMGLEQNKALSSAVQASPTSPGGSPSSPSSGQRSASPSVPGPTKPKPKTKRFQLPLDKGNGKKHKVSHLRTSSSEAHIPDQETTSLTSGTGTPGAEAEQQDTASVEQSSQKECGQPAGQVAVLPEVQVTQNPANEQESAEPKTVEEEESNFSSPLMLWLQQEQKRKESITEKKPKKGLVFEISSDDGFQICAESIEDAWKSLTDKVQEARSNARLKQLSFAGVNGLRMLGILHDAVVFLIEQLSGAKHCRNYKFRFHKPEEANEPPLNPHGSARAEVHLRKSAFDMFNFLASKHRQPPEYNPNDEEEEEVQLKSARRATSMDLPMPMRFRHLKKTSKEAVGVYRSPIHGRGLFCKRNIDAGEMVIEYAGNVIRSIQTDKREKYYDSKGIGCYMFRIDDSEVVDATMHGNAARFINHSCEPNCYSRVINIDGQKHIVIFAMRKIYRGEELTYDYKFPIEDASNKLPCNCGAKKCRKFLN
Histone-lysine N-methyltransferase EZH2 (Homo sapiens), sequence (Q15910 whole entry, looked up): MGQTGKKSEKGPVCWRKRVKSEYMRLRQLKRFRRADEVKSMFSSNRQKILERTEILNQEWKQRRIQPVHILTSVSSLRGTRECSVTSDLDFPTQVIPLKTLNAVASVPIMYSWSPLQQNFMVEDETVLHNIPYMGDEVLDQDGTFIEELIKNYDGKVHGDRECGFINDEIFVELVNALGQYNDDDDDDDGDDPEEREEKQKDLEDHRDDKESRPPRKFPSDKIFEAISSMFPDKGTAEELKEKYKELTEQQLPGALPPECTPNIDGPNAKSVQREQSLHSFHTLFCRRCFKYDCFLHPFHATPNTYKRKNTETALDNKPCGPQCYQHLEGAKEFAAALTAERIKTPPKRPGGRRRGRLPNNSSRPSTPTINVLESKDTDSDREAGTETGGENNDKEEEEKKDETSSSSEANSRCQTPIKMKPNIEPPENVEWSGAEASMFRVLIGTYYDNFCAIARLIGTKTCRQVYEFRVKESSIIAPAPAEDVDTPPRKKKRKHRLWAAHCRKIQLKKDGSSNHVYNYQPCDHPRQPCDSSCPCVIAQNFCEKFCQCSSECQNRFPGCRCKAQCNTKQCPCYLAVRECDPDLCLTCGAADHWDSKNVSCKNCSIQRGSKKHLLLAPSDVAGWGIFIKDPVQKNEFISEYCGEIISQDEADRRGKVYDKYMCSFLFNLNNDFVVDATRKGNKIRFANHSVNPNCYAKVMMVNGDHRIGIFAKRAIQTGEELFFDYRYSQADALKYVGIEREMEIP

**Q.** Which results are given for `Nc1ncnc2c1ncn2[C@@H]1O[C@H](CSCC[C@H](N)C(=O)NCc2cc(-c3ccccc3)[nH]n2)[C@@H](O)[C@H]1O`?
**A.** IC50 [1]: > 100 µM; inhibition [2]: inactive; IC50 [3]: > 100 µM; inhibition [4]: 20%; inhibition [5]: inactive; IC50 [6]: > 100 µM; IC50 [7]: 18.5 µM; inhibition [8]: 20%
